Experimental data published in patent US20150283127A1, “SAQUINAVIR-NO FOR IMMUNOMODULATION” (ONCONOX APS, priority 2012, published 2015).
Marks after values point to notes of the source that are not given here.

Tests used:
[1] = test system: peripheral blood mononuclear cells; conditions: concentrations between 5 and 20 mM; cited from earlier work
murine SPC = assay: Apoptosis in murine SPC, Annexin V-FITC staining and cytofluorimetry; assay type: cell-based, mouse
Excerpt: (§1) Experimental animals (C57BL/6 mice, BALB/c mice and Dark Agouti rats) were obtained from the Animal House Facility of the Institute for Biological Research “Sinisa Stanković”, Belgrade, Serbia. Spleen cells (SPC) were isolated from murine spleens and lymph node cells (LNC) were obtained from rat cervical lymph nodes of untreated animals. Draining lymph node cells (DLNC) were obtained from popliteal lymph nodes 8-10 days after immunization of rats with myelin basic protein (guinea pig MBP, kind gift from professor Alexander Fluegel, University of Goettingen, Germany) and complete Freund's adjuvant (CFA, Difco, Detroit, Mich.). The organs were mechanically disrupted, passed through 40-μm nylon mesh filter and the resulting suspension was collected by centrifugation. Red blood cells from single cell suspensions obtained from spleens were lysed using RBC Lysis Buffer (eBioscience, San Diego, Calif.). CD4+ cells were purified from SPC using biotin conjugated antibody specific for CD4 (eBioscience) and IMag SAv particles plus (BD Biosciences, San Diego, Calif.). Obtained purity of CD4 population was more than 97% as determined by flow cytometry. SPC and LNC were seeded at 5×10^6/ml/well, DLNC at 2.5×10^6/ml/well and CD4+ cells at 1×10^6/ml/well of 24-well plates. Cells infiltrating spinal cords (SC) were obtained from SC of rats immunized with MBP+CFA at the time when rats suffered from severe clinical signs of experimental autoimmune encephalomyelitis (EAE). Rats were perfused with sterile PBS, SC were homogenized, adjusted to 30% Percoll (Sigma-Aldrich) and overlaid on 70% Percoll gradient. Following centrifugation at 870 g for 50 min the SC cells (SCC) were recovered from the […] Percoll interface and washed in RPMI-1640 medium. SCC were seeded at 0.5×106/200 μl/well of 96-well plates. SPC and LNC were stimulated with 2.5 μg/ml concanavalin A (ConA, Sigma-Aldrich), DLNC with MBP (10 ng/ml), CD4+ cells with anti-CD3 and anti-CD28 antibody (1 μg/ml each, both from eBioscience) and SCC were left untreated.
The cells positive for Annexin V-FITC were considered apoptotic. The stained cells were acquired by a FACSCalibur cytometer (BD Biosciences) and analyzed using CellQuest Software (BD Biosciences).

murine CD4+ cells [2] = assay: Cytokine generation (ELISA) in murine CD4+ cells stimulated with anti-CD3 and anti-CD28; assay type: cell-based, mouse; conditions: for Influence on IL-10 / TNF release: CD4+ cells
Excerpt: as §1
Cytokine concentration in cell culture supernatants was determined by sandwich ELISA using MaxiSorp plates (Nunc, Rochild, Denmark) and anti-cytokine paired antibodies according to the manufacturer's instructions. Samples were analyzed in duplicate for murine/rat IL-17, murine IL-10, murine TNF, murine IL-4 (eBioscience), murine IFN-γ, rat IFN-γ, rat IL-4 (R&D, Minneapolis, Minn.), rat IL-10 and rat TNF (BD Biosciences). The results were calculated using standard curves made on the basis of known concentrations of the appropriate recombinant cytokines.
(§2) CD4+ cells were purified from C57BL/6 SPC and stimulated with anti-CD3 and anti-CD28 antibodies in the presence of various concentrations of Saq-NO for 24 hours. The influence of Saq-NO on cytokine generation was compared to its influence on CD4+ cell viability and to the influence of Saq on the same parameters. […] Thus, Saq-NO directly affects T cell cytokine production.

[3] = test system: S6 phosphorylation (S6 kinase activity); assay: S6 phosphorylation in murine CD4+ cells (immunoblot); assay type: cell-based, mouse; conditions: anti-CD3 and anti-CD28, 24 hours
Method: Whole-cell lysates were prepared in a solution containing 62.5 mM Tris-HCl (pH 6.8, 2% w/v sodium dodecyl sulfate (SDS), 10% glycerol, 50 mM dithiothreitol (DTT), 0.01% w/v bromophenol blue, 1 mM phenylmethanesulphonyl fluoride or phenylmethylsulphonyl fluoride (PMSF), 1 μg/ml aprotinine, 2 mM EDTA and samples containing 20 μg of proteins (measured by Lowry protein assay) were electrophoresed on a 12% SDS-polyacrylamide gel. The samples were electro-transferred to polyvinylidene difluoride membranes at 5 mA/cm2, using semi-dry blotting system (Fastblot B43, Biorad, Muenchen, Germany). The blots were blocked with 5% w/v nonfat dry milk in PBS 0.1% Tween-20 and probed with specific antibodies to S6 and phosphorylated-S6 (Ser240/244) at 1:500 dilution (both from Cell Signaling Technology, Boston, Mass.), followed by incubation with secondary antibody at 1:10000 dilution (ECL donkey anti-rabbit horseradish peroxidase (HRP)-linked, GE Healthcare, Buckinghamshire, England, UK). […]
In an attempt to determine intracellular signaling that might be responsible for the observed influence of Saq-NO on the cytokines generation, level of S6 phosphorylation as the measure of S6 kinase activity was detected by immunoblot. CD4+ cells were stimulated with anti-CD3 and anti-CD28 in the presence of Saq-NO or Saq for 24 hours and cell lysates were subsequently obtained and analyzed.

murine CD4+ cells [4] = assay: Viability of murine CD4+ cells; assay type: cell-based, mouse; conditions: 24 hours; effect less than on cytokine generation
Method: In order to assess the viability of SPC, LNC, DLNC and SCC by mitochondrial activity assay we used the mitochondrial-dependent reduction of 3-(4,5-dimethylthiazol-2-yl)-[…] (MTT) to formazan. At the end of appropriate treatments, SPC and LNC were collected in tubes, spun down, supernatants removed and the cell pellets dissolved in […] MTT (Sigma-Aldrich) solution. Incubation with MTT lasted for 30 minutes at 37° C. and cells were centrifuged once more. DMSO was added to the pellets to dissolve the formazan crystals. The absorbances in MTT assay were measured at […], with a correction at 690 nm, using an automated microplate reader (LKB 5060-006, LKB, Vienna, Austria).
as §2

rat LNC = assay: Viability of rat LNC (MTT mitochondrial activity assay); assay type: cell-based; conditions: ConA, 24 hours, difference not statistically significant
Excerpt: Experimental animals (C57BL/6 mice, BALB/c mice and Dark Agouti rats) were obtained from the Animal House Facility of the Institute for Biological Research “Sinisa Stanković”, Belgrade, Serbia. Spleen cells (SPC) were isolated from murine spleens and lymph node cells (LNC) were obtained from rat cervical lymph nodes of untreated animals. Draining lymph node cells (DLNC) were obtained from popliteal lymph nodes 8-10 days after immunization of rats with myelin basic protein (guinea pig MBP, kind gift from professor Alexander Fluegel, University of Goettingen, Germany) and complete Freund's adjuvant (CFA, Difco, Detroit, Mich.). The organs were mechanically disrupted, passed through 40-μm nylon mesh filter and the resulting suspension was collected by centrifugation. Red blood cells from single cell suspensions obtained from spleens were lysed using RBC Lysis Buffer (eBioscience, San Diego, Calif.). […] Obtained purity of CD4 population was more than 97% as determined by flow cytometry. […]
In order to assess the viability of SPC, LNC, DLNC and SCC by mitochondrial activity assay we used the mitochondrial-dependent reduction of 3-(4,5-dimethylthiazol-2-yl)-2,5-[…] bromide (MTT) to formazan. […] The absorbances in MTT assay were measured at […], with a correction at 690 nm, using an automated microplate reader (LKB 5060-006, LKB, Vienna, Austria).

[5] = anti-CD3 and anti-CD28, 24 hours

Compound	PHA or anti-CD3-induced proliferation [1]	% of AnnV+ cells (murine SPC; C 5 μg/ml)	% of AnnV+ cells (murine SPC; C 10 μg/ml)	% of AnnV+ cells (murine SPC; C 20 μg/ml)	Influence on IL-10 (murine CD4+ cells [2]; [5])	TNF release (murine CD4+ cells [2]; [5])	IL-17 secretion from purified CD4+ T cells at low concentrations (murine CD4+ cells [2]; concentrations of 2.5 and 5 mM)	S6 phosphorylation [3]	CD4+ cell viability (murine CD4+ cells [4])	Generation of IFN-g, IL-4 and IL-17 (murine CD4+ cells [2]; CD4+ cells of C57BL/6 SPC, anti-CD3 and anti-CD28, 24 hours)	LNC viability (rat LNC)
CC(C)(C)NC(=O)[C@@H]1C[C@@H]2CCCC[C@@H]2CN1C[C@@H](O)[C@H](Cc1ccccc1)NC(=O)[C@H](CC(N)=O)NC(=O)c1ccc2ccccc2n1 [Saq, (2S)—N-[(2S,3R)-4-[(3S)-3-(tert-butylcarbamoyl)-decahydroisoquinolin-2-iy]-3-hydroxy-1-phenylbutan-2-il]-2-(quinolin-2-ylformamido)butanediamide, reference compound]	inhibited	27.5 +/− 4.8%	31.6 +/− 6.4%	49.8 +/− 4.8* %	similarly potent	did not modulate	inhibitory effect	much weaker			
CC(C)(C)NC(=O)C1C[C@@H]2CCCC[C@@H]2CN1CC(O[N+](=O)[O-])[C@H](Cc1ccccc1)NC(=O)C(CC(N)=O)NC(=O)c1ccc2ccccc2n1 (some centres unmarked) [Saq-NO, nitric ester of Saquinavir]		30.2 +/− 7.5%	38.4 +/− 4.8%	44.5 +/− 11.5%	similarly potent	did not modulate		diminished	statistically significantly inhibited	more effectively than Saq	affected only with the highest dose
